Where two headings read alike, the source gives them in different places.
Assays:
[1] = Ex vivo radiometabolite analysis in mouse blood and urine (radio-TLC, radio-HPLC); conditions: for radiotracer intact in blood and urine: 60 min post injection, ex vivo
Description: After tracer injection, CO2 asphyxiation, and cervical dislocation, blood was collected from a cardiac puncture into a tube containing 2 μL of 1% heparin (diluted from 5100 IU/mL) in 0.9% NaCl (aq.). The sample was centrifuged (1000g, 10 min) to separate the plasma from the blood cells. Cold acetonitrile (2 × vol of plasma) was added and centrifuged (10,000g for 5 min) to precipitate the proteins. A sample (100 μL) of the supernatant was injected into HPLC for radio-HPLC analysis. For the tracer [^18F]14, the supernatant was sampled also on TLC for digital autoradiography analysis.
Whole blood from mice were extracted during ex vivo studies, using cardiac puncture. The sample was applied in a microtube containing 1% heparin solution in 0.9% NaCl (aq.) (2 μL); the sample was centrifuged (1000g, 10 min), the total radioactivity in the sample was measured with a γ counter, the supernatant was separated from the pellet (RBC containing fraction), and cold ACN (500 μL) was added. The sample was centrifuged (10,000g, 5 min) to remove the free fraction from the precipitated protein-containing pellet. The pellet (protein-bound fraction) and the supernatant (free fraction) were measured with a γ counter, and a sample (100 μL) was injected into HPLC and spotted (4 μL) on a TLC plate (radio-TLC, TLC silica gel 60 F254, ACN/water 80:20).
Figure S26. Ex vivo stability of [18F]AmBF3-PEG4-TOC ([18F]14) in AR42J tumor bearing mouse blood 5 and 30 minutes post-injection (Radio-TLC). […]
retardation factor (Rf) of Rf = 40 mm. At 30 minutes post-injection the radiometabolite at 40 mm had disappeared and instead a highly polar metabolite (2.8%) at 4.0 mm was visible, and was accompanied by another metabolite (2.0%) eluting in the immediate vicinity of [18F]14 at Rf = 58 mm. At 60 minutes post-injection the tracer accounted for ≥99% of the radioactivity both in blood and urine (ex vivo). […]
(1 picture or pasted object on this page, not shown here)

[2] = test system: subcutaneous AR42J tumor; assay: PET/CT imaging of [18F]15; format: in vivo, Rj:NMRI-Foxn1^nu/nu mice; conditions: i.v., 0.2 nmol
Description: (§1) [^18F]6 in 10% ethanol–0.01 M PBS was administered intravenously to male Fox Chase SCID mice (CB.17 SCID) (11.0 ± 0.5 MBq, ∼11 nmol, ∼150 μL, n = 4) and healthy female C57BL/6JRj mice (11.3 ± 0.3 MBq, ∼11 nmol, ∼150 μL, n = 4) under 2% isoflurane anesthesia. The PET/CT image was acquired with Inveon PET/CT for 60 min followed by a 15 min static scan 4 h after injection of the tracer. The images of the dynamic scan were reconstructed to time frames 60 × 10, 10 × 60, 4 × 300, and 3 × 600 s. After the second PET imaging (t = 270 ± 1.9 min post injection, n = 4), the organs were harvested and the radioactivity in each tissue sample was measured with a γ-counter and reported as a percentage of injected dose per gram of tissue (% ID/g). [^18F]15 was formulated in 4% ethanol in 0.01 M PBS and administered intravenously (0.2 nmol, 0.80 ± 0.30 MBq; tracer: 150 μL; tracer + blocking dose: 200 μL) to AR42J tumor-bearing Rj:NMRI-Foxn1^nu/nu mice (n = 4) under 2% isoflurane anesthesia. PET/CT images were acquired with Molecubes PET (β-CUBE) coupled with a CT (X-CUBE) (MOLECUBES NV, Ghent, Belgium) with two mice being imaged at the same time under 2% isoflurane anesthesia. Images were reconstructed to time frames 30 × 10, 15 × 60, 4 × 300, and 5 × 600 s. Quantitative image analysis was done with Carimas software (v 2.10, Turku PET Centre, Turku, Finland). Spherical ROIs were hand-drawn based on anatomical CT data and PET signal for the desired organs. The results are presented as standardized uptake values (SUVs).
(§2) The standardized uptake values (SUVs) were determined from the PET image by drawing regions-of-interest (ROI) around selected organs (heart, liver, kidney, lung, muscle, urinary bladder) with Carimas software (version 2.10, Turku PET Centre, Turku, Finland ) and by measuring the ratio of radioactivity per unit volume of that ROI and normalized to the injected […]
dose. […]

[3] = PET/CT imaging of [18F]15; format: in vivo, Rj:NMRI-Foxn1^nu/nu mice; conditions: Rj:NMRI-Foxn1^nu/nu, mouse, subcutaneous AR42J tumor, iv, 0.2 nmol, total radioactivity; for SUV at 25 min: 25 min post injection; for SUV at 1.5 h: 90 min post injection
Description: as §1, §2
dose. […]

[4] = 30 minutes post-injection, radio-TLC

## C[C@@H](O)[C@@H]1NC(=O)[C@H](CCCCN)NC(=O)[C@@H](Cc2c[nH]c3ccccc23)NC(=O)[C@H](Cc2ccc(O)cc2)NC(=O)[C@@H](NC(=O)[C@@H](Cc2ccccc2)NC(=O)CCOCCOCCOCCOCCON=Cc2ccc(CNC(=O)OC3CCCc4cnnc(-c5ccc(CC(=O)NCC[N+](C)(C)C[B-](F)(F)F)cc5)c4CC3)cc2)CSSC[C@@H](C(=O)N[C@H](CO)[C@@H](C)O)NC1=O (stereo partly shown) [[^18F]14]
[1]; 5 minutes post-injection, radio-TLC
  slightly polar metabolite in blood (Rf = 40 mm): 4%
[1]; [4]
  another metabolite in blood (Rf = 58 mm): 2.0%
  highly polar metabolite in blood (4.0 mm): 2.8%
[1]
  radiotracer intact in blood and urine: approximately 99%
[1]; listed as [18F]14
  radiotracer intact in blood and urine: ≥ 99%

## C[C@@H](O)[C@@H]1NC(=O)[C@H](CCCCN)NC(=O)[C@@H](Cc2c[nH]c3ccccc23)NC(=O)[C@H](Cc2ccc(O)cc2)NC(=O)[C@@H](NC(=O)[C@@H](Cc2ccccc2)NC(=O)CCOCCOCCOCCOCCON=Cc2ccc(C(=O)NCCOCCOCCOCCNC(=O)OC3CCCc4cnnc(-c5ccc(CC(=O)NCC[N+](C)(C)C[B-](F)(F)F)cc5)c4CC3)cc2)CSSC[C@@H](C(=O)N[C@H](CO)[C@@H](C)O)NC1=O (stereo partly shown) [[^18F]15]
[2]
  time of peak radioactivity in tumor (TAC): 20 to 30 min
[3]; coadministration of octreotide, read-out: tumor SUV, blocked
  SUV at 25 min: 0.76 ± 0.04 SUV
[3]; read-out: tumor SUV, baseline
  SUV at 25 min: 1.01 ± 0.07 SUV
[3]; n = 2, coadministration of octreotide, read-out: tumor SUV, blocking
  SUV at 1.5 h: 0.76 ± 0.03 SUV
[3]; n = 2, read-out: tumor SUV, baseline
  SUV at 1.5 h: 0.82 ± 0.14 SUV

Reference: paper PMC9305971, “Development of [^18F]AmBF3 Tetrazine for Radiolabeling of Peptides: Preclinical Evaluation and PET Imaging of [^18F]AmBF3-PEG7-Tyr^3-Octreotide in an AR42J Pancreatic Carcinoma Model” (Bioconjugate Chemistry, 2022)
